Laboratory results reported in patent publication US10202604B2, “Methods of using microRNA-141” (Stemirna Therapeutics Co., Ltd., priority 2016, dated 2019).

Key:
prostate cancer tumors = assay: Ki-67+ cells in miR-141-overexpressing tumors; assay type: in vivo
[1] = system: cultured as well as primary patient human prostate cancer cells; assay: Matrigel invasion assay; assay type: cell-based
Experimental: For Boyden Chamber invasion assays, Biocoat Matrigel Invasion Chamber (BD, Franklin Lakes, N.J.) was employed following the manufacturer's instructions. Briefly, 100,000-200,000 of prostate cancer cells after transfection with […]/miR-141 oligos or infection with miR-141 over-expressing lentivirus were seeded into each well. Medium with 20% fetal bovine serum was used in the lower chamber as chemo-attractant. After 20 h, cells were fixed and stained using HEMA stain. Representative images were taken for each membrane and cells were counted. Migration assays were simultaneously performed in control wells using identical protocol with Transwell (Costar; […]) without Matrigel. In some experiments, Du145 cells were plated one day before and treated with 1, 2, and 5 μM of DZNep (3-Deazaneplanocin A) for 96 h after which cells were harvested and used in invasion assays and Western blot.

CD44 = CD44 mRNA and protein levels in prostate cancer cells; assay type: cell-based, human; details: bulk Du145 and PC3 cells or CD44+ Du145 cells
Experimental: FIGS. 3A-3J show partial suppression of epithelial to mesenchymal transition by miR-141 and CD44 as a direct target of miR-141. FIGS. 3A-3B show qPCR analysis of epithelial to mesenchymal transition markers in bulk (FIG. 3A) or CD44^+ (FIG. 3B) Du145 cells transfected with the miR-141 oligos (30 nM; 48 h). Results were presented as the relative expression levels over the cells transfected with the NC oligos. […] GAPDH was used as control and the relative protein levels after normalizing to GAPDH and NC controls were indicated below each lane. […] Shown below is the actual sequence in the region with the mutated miR-141 binding sequence indicated in grey (below). […] Shown are representative images. […] Du145 cells were co-transfected with NC or miR-141 oligos (30 nM) together with pBabe empty vector or pBabe-CD44 vector. After 48 h, cells were harvested for invasion assays. Bars, mean±SD. *, P<0.05; **, P<0.01.
Total RNA was extracted using microRNA isolation kit (Life Technologies) according to the manufacturer's instructions. microRNA qPCRs were performed using TaqMan microRNA assays (Life Technologies). qPCR data for microRNAs were normalized to RNU48 whereas qPCR data for mRNAs were normalized to GAPDH.

[2] = system: RAC1, CDC42, ARPC5 and CDC42EP3; assay: Western blotting of Rho GTPase signaling members; assay type: cell-based, human; details: Du145 cells, miR-141 over-expression
Experimental: (§1) Du145 cells transfected with NC or miR-141 oligos at the two doses and time intervals indicated were used in Western blotting. Indicated below are relative expression levels (normalized to respective GAPDH and compared to NC) of each protein determined by densitometric scanning of the individual bands. […] Bars, mean±SD. *P<0.05; **P<0.01. […] Du145 cells were co-transfected with NC or miR-141 oligos (30 nM) in combination with pcDNA3.1 (control) vector or pcDNA-RAC1 or pcDNA-CDC42 expression vector. After 48 h, cells were harvested for invasion assays. […] Du145 cells were infected with Lenti-141 or control lentivirus (MOI 10, 48 h) and then harvested to measure the Rho GTPase activities. Bars, mean±SD. *P<0.05. […] Du145 cells were transfected with the antisense oligos to NC or miR-141 (anti-141; 30 nM) and then used in invasion assays (FIG. 5E). In FIG. 5F and FIG. 5G Du145 cells were transfected with 10 nM of scramble siRNA control (siCon) or siRNAs targeting RAC1 (FIG. 5F) or CDC42 (FIG. 5G), either alone or in combination of anti-141 (30 nM). 48 h later, cells were harvested for invasion assays. Bars, mean±SD. *P<0.05; **P<0.01.

Human RAC1 3'-UTR = assay: 3'-UTR luciferase reporter assay; assay type: cell-based; details: Du145 cells; 30 nM miR-141 vs NC oligos
Experimental: as §1
The human CD44 3′-UTR was amplified from Du145 genomic DNA using primers 5′-[…]-3′ (SEQ ID NO: 2) and 5′-[…]-3′ (SEQ ID NO: 3), as previously described (13). For site-specific mutagenesis, the region in the CD44 3′-UTR (SEQ ID NO: 4, shown with uracils) complementary to the seed sequence of miR-141 (SEQ ID NO: 1) were mutated (TAGTGTT to GGCGCGG; see FIG. 3D). The human EZH2 3′-UTR was amplified from Du145 genomic DNA using primers 5′-GAGCTC-CATCTGCTACCTCCTCCCC-3′ (SEQ ID NO: 6) and 5′-[…]-3′ (SEQ ID NO: 7). For site-specific mutagenesis, the region complementary to the seed sequence of miR-141 was mutated (AAAGTGTT to TATCACAA; see FIG. 6A). The PCR fragments were cloned into pGEM-T vector (Promega, Madison, Wis.) and sequence confirmed. Cells were plated in 24-well plates and co-transfected, using Lipofectamine 2000, with 1 μg firefly luciferase reporter plasmid and 5 ng Renilla plasmid (phRL-CMV) into which the 3′-UTR fragments were cloned. The luciferase activities were detected using Duo-luciferase reporter assay system (Promega). Human RAC1, CDC42, CDC42EP3, and ARPC5 3′-UTR luciferase reporter constructs were obtained from SwitchGear Genomics (Menlo Park, Calif.) and luciferase activities were measured per the manufacturer's instructions using LightSwitch luciferase assay kit.

SUZ12 = SUZ12 protein level, Western blotting; assay type: cell-based, human; details: PC3 and Du145, 30 or 60 nM, 72 h
Experimental: FIG. 6A: Putative binding site of miR-141 in EZH2 3′-UTR. […] FIG. 6C is a qPCR analysis of EZH2 mRNA levels in CD44^+ PCa cells. Bars, mean±SD. *P<0.05; **P<0.01. […] Bars, mean±SD. **P<0.01. […] Western blotting was performed in PC3 and Du145 cells transfected with NC (60 nM) or miR-141 (30 or 60 nM) oligos (72 h). Relative protein levels were measured by densitometry and normalized to GAPDH levels (indicated below). […] Du145 cells plated one day before were treated with 1, 2, and 5 μM of DZNep for 96 h and then cells were harvested for invasion assays. **P<0.01. Inset, WB showing reduced EZH2 proteins by DZNep. […] Du145 cells were transfected with 10 nM scramble siRNA (siCon) or EZH2-targeting siRNAs (siEZH2) or siEZH2 plus anti-miR-141 (30 nM). 48 h later, cells were harvested for invasion assays. Bars, mean±SD. **P<0.01. […] Du145 cells were co-transfected with 30 nM NC or miR-141 oligos together with empty vector or pCMV-EZH2 construct. After 48 h, cells were harvested for invasion assay. Bars, mean±SD. **P<0.01.

For “miR-141: miR-141 mirVana mimics (Life Technologies); microRNA-141 oligonucleotide may have SEQ ID NO: 1; in some experiments over-expressed by lentiviral vectors (UAACACUGUCUGGUAAAGAUGG; listed as RNA, further chemistry not given here) [miR-141 mirVana mimics (Life Technologies); in some experiments over-expressed by lentiviral vectors]”, the “Ki-67+ cells” value (prostate cancer tumors) was “reduced”, the invasive capabilities [1] was “significantly inhibited” and the “CD44 mRNA level” value (CD44) was “significantly reduced”. For the same substance, the CD44 protein level (CD44) was “significantly reduced”, the “protein levels of ARPC5, CDC42EP3, CDC42 and RAC1” value [2] was “downregulated, to varying degrees” and the “luciferase activity of RAC1 3'-UTR construct” value (Human RAC1 3'-UTR) was “inhibited”. For the same substance, the SUZ12 protein level (SUZ12) was “reduced”.
